Source: PubChem BioAssay (NCI)
Values joined by “and” are separate entries in the source; they are usually repeats but may differ in a detail not shown here. Identical values can stand only once.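 GI50 is the concentration that inhibits growth by half. TGI marks complete inhibition of growth.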

How the values were obtained:
Test in all cases: growth of human tumour cells (NCI), 384-well format
KM12 colon = tested on: KM12 colon
HCT-116 colon = tested on: HCT-116 colon
MDA-MB-231 breast = tested on: MDA-MB-231 breast
U251 glioblastoma = tested on: U251 glioblastoma
MDA-MB-435 melanoma = tested on: MDA-MB-435 melanoma
NCI-H322M lung = tested on: NCI-H322M lung
HOP-62 NSCLC = tested on: HOP-62 NSCLC
MDA-MB-468 breast = tested on: MDA-MB-468 breast
UO-31 renal = tested on: UO-31 renal
NCI-H226 lung = tested on: NCI-H226 lung
SW-620 colon = tested on: SW-620 colon
MCF7 breast = tested on: MCF7 breast
PC-3 prostate = tested on: PC-3 prostate
A549 NSCLC = tested on: A549 NSCLC
786-0 renal = tested on: 786-0 renal
SNB-75 CNS = tested on: SNB-75 CNS
SNB-19 CNS = tested on: SNB-19 CNS
BT-549 breast = tested on: BT-549 breast
T-47D breast = tested on: T-47D breast
HT29 colon = tested on: HT29 colon
SK-OV-3 ovarian = tested on: SK-OV-3 ovarian
OVCAR-8 ovarian = tested on: OVCAR-8 ovarian
UACC-62 melanoma = tested on: UACC-62 melanoma
OVCAR-3 ovarian = tested on: OVCAR-3 ovarian
ACHN renal = tested on: ACHN renal
MALME-3M melanoma = tested on: MALME-3M melanoma
CAKI-1 renal = tested on: CAKI-1 renal
UACC-257 melanoma = tested on: UACC-257 melanoma

COc1ccc(C2=N[C@@H](c3ccc(Cl)cc3)[C@@H](c3ccc(Cl)cc3)N2C(=O)N2CCNC(=O)C2)c(OC(C)C)c1
TGI (KM12 colon): 27.8 µM and 12.7 µM and 12.3 µM | TGI (HCT-116 colon): 24 µM and 14.5 µM and 12.8 µM | GI50 (MDA-MB-231 breast): 17 µM and 14.1 µM and 12.9 µM | TGI (MDA-MB-231 breast): 30.8 µM and 27.1 µM and 25.6 µM | GI50 (U251 glioblastoma): 14.7 µM and 13.7 µM and 10.9 µM | TGI (U251 glioblastoma): 28 µM and 26.7 µM and 22.9 µM | GI50 (MDA-MB-435 melanoma): 13.8 µM and 16.4 µM and 15.8 µM | TGI (MDA-MB-435 melanoma): 26.8 µM and 30.1 µM and 29.4 µM | GI50 (NCI-H322M lung): 19.3 µM and 17.7 µM and 13.7 µM | TGI (NCI-H322M lung): 33.6 µM and 31.6 µM and 26.7 µM | GI50 (HOP-62 NSCLC): 15.6 µM and 2.36 µM and 5.46 µM | TGI (HOP-62 NSCLC): 29.1 µM and 19.6 µM and 20.5 µM | GI50 (MDA-MB-468 breast): 12.4 µM and 11 µM and 11.5 µM | TGI (MDA-MB-468 breast): 24.9 µM and 23 µM and 23.7 µM | GI50 (UO-31 renal): 11.2 µM and 4.63 µM and 5.1 µM | TGI (UO-31 renal): 23.3 µM and 15.8 µM and 16 µM | TGI (NCI-H226 lung): 23.7 µM and 2.47 µM and 3.4 µM | GI50 (SW-620 colon): 13.1 µM and 11 µM and 3.58 µM | TGI (SW-620 colon): 26 µM and 23.3 µM and 19.4 µM | GI50 (MCF7 breast): 3.43 µM and 1.73 µM and 0.718 µM | TGI (MCF7 breast): 16.8 µM and 8.38 µM and 8.52 µM | GI50 (PC-3 prostate): 12.5 µM and 13 µM and 12.6 µM | TGI (PC-3 prostate): 25.1 µM and 25.8 µM and 25.2 µM | GI50 (A549 NSCLC): 14.6 µM and 2.28 µM and 2.23 µM | TGI (A549 NSCLC): 27.8 µM and 14.7 µM and 13.8 µM | GI50 (786-0 renal): 14.7 µM and 14 µM and 11.2 µM | TGI (786-0 renal): 27.9 µM and 27.1 µM and 23.3 µM | GI50 (SNB-75 CNS): 13.3 µM and 11.9 µM and 11.6 µM | TGI (SNB-75 CNS): 26.1 µM and 24.2 µM and 23.9 µM | GI50 (SNB-19 CNS): 14.3 µM and 14.6 µM | TGI (SNB-19 CNS): 27.4 µM and 27.9 µM | GI50 (BT-549 breast): 16.6 µM and 16.9 µM | TGI (BT-549 breast): 30.3 µM and 30.2 µM and 30.6 µM | GI50 (T-47D breast): 17 µM and 14.7 µM and 13.8 µM | TGI (T-47D breast): 30.7 µM and 28 µM and 26.7 µM | GI50 (HT29 colon): 11.8 µM and 13.4 µM and 10.5 µM | TGI (HT29 colon): 24.2 µM and 26.3 µM and 22.3 µM | GI50 (SK-OV-3 ovarian): 19.7 µM and 16 µM and 12.9 µM | TGI (SK-OV-3 ovarian): 34 µM and 29.6 µM and 25.7 µM | GI50 (OVCAR-8 ovarian): 15.6 µM and 11.9 µM and 10.5 µM | TGI (OVCAR-8 ovarian): 29.1 µM and 24.4 µM and 22.3 µM | TGI (UACC-62 melanoma): 21.8 µM and 8.99 µM and 11.3 µM | GI50 (OVCAR-3 ovarian): 12.8 µM and 12 µM and 12.1 µM | TGI (OVCAR-3 ovarian): 25.5 µM and 24.6 µM | TGI (ACHN renal): 24.2 µM and 11.4 µM and 11.2 µM | GI50 (MALME-3M melanoma): 8.12 µM and 2.75 µM and 5.41 µM | TGI (MALME-3M melanoma): 20.3 µM and 19.3 µM and 19.7 µM | TGI (CAKI-1 renal): 21.1 µM and 11.9 µM and 12.4 µM | GI50 (UACC-257 melanoma): 15.5 µM and 5.8 µM and 8.65 µM
